From PMC4573514, “Identification and characterization of [6]-shogaol from ginger as inhibitor of vascular smooth muscle cell proliferation” (Molecular Nutrition & Food Research, 2015)
“Also recorded” adds a separate entry of the source.

What was measured:
VSMC [1] = assay: Resazurin conversion assay, PDGF-BB-induced VSMC proliferation; format: cell-based, rat; settings: for IC50: VSMC
Procedure: (§1) VSMC were seeded in 96-well plates at 5 × 10^3 cells/well. After 24 h, cells were serum-starved for 24 h to render them quiescent. Quiescent cells were pretreated for 30 min with ginger extract, compounds, or vehicle (0.1% DMSO) as indicated, and subsequently stimulated for 48 h with PDGF-BB (20 ng/mL). To measure the number of metabolically active VSMC by resazurin conversion,[19], cells were washed with PBS and incubated in serum-free medium containing 10 μg/mL resazurin for 2 h. Total metabolic activity was measured by monitoring the increase in fluorescence at a wavelength of 590 nm using an excitation wavelength of 535 nm in a 96-well plate reader (Tecan GENios Pro). HUVECtert cells,[20] were seeded in 96-well plates at 5 × 10^3 cells/well. After 24 h, HUVECtert cells were treated with compounds or vehicle (0.1% DMSO) as indicated and incubated for 48 h. Then, cells were washed with PBS and incubated in culture medium containing 10 μg/mL resazurin for 2 h. The detection step is performed as described above.

VSMC [2] = assay: Assessment of cytotoxicity by LDH release; format: cell-based; settings: PDGF-BB 20 ng/mL, 24 h, n.s. = no significant difference, up to stated concentration
Procedure: VSMC were seeded in 96-well plates at 5 × 10^3 cells/well. Twenty-four hours later, cells were serum starved for 24 h to render them quiescent. Quiescent cells were pretreated for 30 min with compounds, or vehicle (0.1% DMSO) as indicated, and subsequently stimulated for 24 h with PDGF-BB (20 ng/mL). Loss of cell membrane integrity as a sign for cell death can be quantified by the release of the soluble cytosolic protein lactate dehydrogenase (LDH),[23]. For this, the supernatant of the treated cells was assessed for LDH activity. For estimation of the total LDH, identically treated samples were incubated for 45 min in the presence of 1% Triton X-100. The released and total LDH enzyme activity was measured for 30 min at the dark in the presence of 4.5 mg/mL lactate, 0.56 mg/mL NAD+, 1.69 U/mL diaphorase, 0.004% w/v BSA, 0.15% w/v sucrose, and 0.5 mM 2-p-iodophenyl-3-nitrophenyl tetrazolium chloride. The enzyme reaction was stopped with 1.78 mg/mL oxymate and the absorbance was measured at 490 nm. Potential effects on cell viability were estimated as percentage of extracellular LDH enzyme activity. The cytotoxic natural product digitonin (100 μg/mL) was used as a positive control.

VSMC [3] = assay: Crystal violet biomass staining, PDGF-BB-stimulated VSMC; format: cell-based; settings: Rattus norvegicus, PDGF-BB 20 ng/mL, 48 h
Procedure: VSMC were seeded in 96-well plates at 5 × 10^3 cells/well. Twenty-four hours later, cells were serum starved for 24 h to render them quiescent. Quiescent cells were pretreated for 30 min with ginger extract, compounds, or vehicle (0.1% DMSO) as indicated and subsequently stimulated for 48 h with PDGF-BB (20 ng/mL). To determine the total biomass by crystal violet staining, cells were then incubated in 100 μL of crystal violet staining solution (0.5% crystal violet, 20% methanol) for 15 min and then washed with ddH2O. After drying, 100 μL EtOH/Na-citrate solution were added (EtOH: 0.1M Na-citrate = 1:1) and the absorbance of the samples was measured at 595 nm in a 96-well plate reader (Tecan sunrise).

HUVECtert = assay: Resazurin conversion assay in endothelial cells; format: cell-based, human; settings: for Resazurin metabolic conversion in HUVECs (endothelial viability/proliferation): HUVECtert, 48 h, n.s. = no significant difference, up to stated concentration
Procedure: as §1, with “To measure the number of metabolically active VSMC by resazurin conversion,[19], cells were washed with PBS and incubated in serum-free medium containing 10 μg/mL resazurin for 2 h.” left out

HO-1 = assay: Immunoblot analysis of HO-1 expression in VSMC; format: cell-based, rat; settings: 3 and 10 μM, PDGF-BB 20 h
Procedure: (§2) Cells (MEF or VSMC) were seeded onto six-well plates ((3–4) × 10^5 cells/well). Twenty-four hours later, MEF were treated with vehicle (0.1% DMSO) or [6]-shogaol at the indicated concentrations for 20 h; VSMC were serum starved for another 24 h, then quiescent cells were pretreated for 30 min with vehicle (0.1% DMSO) or [6]-shogaol as indicated and subsequently stimulated for 20 h with PDGF-BB (20 ng/mL). Then, cells were lysed and protein extracts were subjected to SDS-PAGE electrophoresis and immunoblot analysis as described,[22]. Proteins were visualized using enhanced chemiluminescence reagent and an LAS-3000 luminescent image analyzer (Fujifilm) with AIDA software (Raytest) for densitometric evaluation.

Nrf2/HO-1 = assay: Immunoblot analysis of HO-1 in WT and Nrf2-/- mouse embryonic fibroblasts; format: cell-based; settings: 10 or 3 μM
Procedure: as §2

VSMC [4] = assay: Cell-cycle analysis by PI staining and flow cytometry; format: cell-based, rat; settings: 10 μM, PDGF-BB 20 ng/mL 16 h, PI stained nuclei
Procedure: VSMC were seeded in 12-well plates at 1 × 10^4 cells/well. Twenty-four hours later, cells were serum starved for 24 h to render them quiescent. Quiescent cells were preincubated with [6]-shogaol (10 μM) or vehicle ([…]) for 30 min. PDGF-BB (20 ng/mL) was added, and 16 h later cells were trypsinized, washed once with PBS, and resuspended in a hypotonic propidium iodide (PI) solution containing 0.1% v/v Triton X-100, 0.1% w/v sodium citrate, and 50 μg/mL PI. After incubation at 4°C overnight, PI-stained nuclei were analyzed by flow cytometry (excitation 488 nm, emission 585 nm; FACScalibur; BD Biosciences, Germany).

VSMC [5] = assay: BrdU incorporation assay (de novo DNA synthesis); format: cell-based; settings: Rattus norvegicus, PDGF-BB 20 ng/mL, read-out: Inhibition of PDGF-stimulated DNA synthesis, BrdU incorporation (IC50)
Procedure: VSMC were seeded in 96-well plates at 5 × 10^3 cells/well. Twenty-four hours later, cells were serum starved for 24 h to render them quiescent. Quiescent cells were pretreated for 30 min with compounds, or vehicle (0.1% DMSO) as indicated and subsequently stimulated with PDGF-BB (20 ng/mL). To estimate de novo DNA synthesis in VSMC [21],[22], BrdU was added 2 h after PDGF stimulation, and the incorporation amount was determined 22 h afterwards according to the manufacturer's instructions (Roche Diagnostics).

[6] = parameters: method as in PMID 19201263; settings: rats, single oral administration of ginger oleoresin 300 mg/kg; ref [39]; cited from earlier work
[7] = Rattus norvegicus, 48 h, PDGF-BB 20 ng/mL, 48 h, read-out: Resazurin metabolic conversion (IC50)

Row | Compound | IC50 (VSMC [1]; [7]) [µM] | Cell death (LDH release) (VSMC [2]) | IC50 (VSMC [3]) [µM] | Resazurin metabolic conversion in HUVECs (endothelial viability/proliferation) (HUVECtert) | also measured
1 | CCCCCCCC(O)CCc1ccc(O)c(OC)c1 (racemic) [rac-[6]-Dihydroparadol, rac-[6]-dihydroparadol] | 10 | n.s. (up to 30 μM) | 4.11 | n.s. (up to 30 μM) | 
2 | CCCCCCCC(=O)CCc1ccc(O)c(OC)c1 [[6]-Paradol, [6]-paradol] | 5.3 | n.s. (up to 30 μM) | 3.34 | n.s. (up to 30 μM) | 
3 | CCCCCC=CC(=O)CCc1ccc(O)c(OC)c1 [[6]-Shogaol, [6]-shogaol] | 2.7 | n.s. (up to 10 μM) | 1.13 | n.s. (up to 10 μM) | HO-1 levels compared to vehicle treated cells (HO-1): significantly elevated HO-1 levels; HO-1 induction in WT vs Nrf2-/- fibroblasts (Nrf2/HO-1): strictly Nrf2-dependent increase of HO-1; IC50 (VSMC [1]; PDGF-BB 20 ng/mL, 48 h, read-out: Resazurin metabolic conversion (IC50)): 2.72 µM; Antiproliferative effect in the presence of HO-1 inhibitor tin protoporphyrin IX (VSMC [1]; [6]-shogaol 3 μM, SnPP 10 μM pretreatment 1 h, resazurin conversion): lost its antiproliferative activity; also recorded: loses its antiproliferative influence on VSMC; Cell-cycle distribution (VSMC [4]): counteracted the PDGF-induced transition of VSMC from the G0/G1 cell-cycle phase to the G2/M phase; Cell death (LDH release) (VSMC [2]; listed as [6]-shogaol): did not exhibit cytotoxicity toward VSMC; Resazurin metabolic conversion in HUVECs (endothelial viability/proliferation) (HUVECtert; listed as [6]-shogaol): did not interfere with endothelial cell proliferation; also recorded: did obviously not impair endothelial viability and proliferation; IC50 (VSMC [5]): 3000 nM; Peak plasma concentration [6]: 0.11 µg/L; Peak plasma concentration (converted) [6]: 0.40 µM
4 | CC(=O)O[C@H]1C(=O)[C@@]2(C)[C@H]([C@H](OC(=O)c3ccccc3)[C@]3(O)C[C@H](OC(=O)[C@H](O)[C@@H](NC(=O)c4ccccc4)c4ccccc4)C(C)=C1C3(C)C)[C@]1(OC(C)=O)CO[C@@H]1C[C@@H]2O [paclitaxel, reference compound] |  |  |  |  | IC50 (VSMC [1]; Rattus norvegicus, data not shown, read-out: Anti-proliferative effect in VSMC (IC50)): 0.108 µM; IC50 (HUVECtert; Homo sapiens, Endothelial cell, endothelial cells, data not shown, read-out: Anti-proliferative effect in endothelial cells (IC50)): 4 nM
5 | COc1cc(CCC(C)=O)ccc1O [Zingerone, zingerone] | > 100 |  |  |  | 
6 | CCCCC[C@H](O)CC(=O)CCc1ccc(O)c(OC)c1 [[6]-Gingerol, [6]-gingerol] | 13.2 | n.s. (up to 100 μM) | 8.77 | n.s. (up to 30 μM) | 
